These results are taken from the METLIN SMRT retention time set (Domingo-Almenara et al. 2019).

The structures appear in SMILES notation.

The data set in a line: gradient 5% acetonitrile 3 min, to 50% in 2 min, to 85% in 15 min, held 3 min, 100 µL/min. Conditions: column: Zorbax Extend-C18 2.1 x 50 mm; eluents: water / acetonitrile, 0.1% formic acid. The procedure, abridged: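 Using water and acetonitrile that each contained 0.1% formic acid, mixtures of ~100 pure standards were separated at 100 μL/min on a Zorbax Extend-C18 column (2.1 × 50 mm, 1.8 μm). The HPLC fed a quadrupole time-of-flight mass spectrometer working in positive and negative ionization mode, with dead and dwell volumes of 40 μL and 900 μL. Data were acquired over 3 months. Retention time was read from computationally picked adduct peaks after manual inspection of each.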
The compound `CC(NC(=O)CN1CN(c2ccccc2)C2(CCN(C(=O)CC(C)(C)C)CC2)C1=O)c1ccccc1` (stereo not given) returned an RP-LC retention time of 931 s.
Consider `COc1ccc2c(c1)C1(CCN(S(=O)(=O)c3cccc(Cl)c3)C1)C(=O)N2` (stereo not given), for which the RP-LC retention time is 866 s.
`CCOc1ccc(NC(=O)c2cc(S(=O)(=O)N3CCC(C)CC3)cn2C)cc1` returned an RP-LC retention time of 1070 s.
The compound `CCN(CC)S(=O)(=O)c1ccc2c(c1)N(CC(=O)N1CCCCC1)C(=O)C1CCCCN21` (stereo not given) displayed an RP-LC retention time of 905 s.
On to `CN1CCN(c2cc(C(=O)O)c3cc(F)ccc3n2)CC1`, for which the RP-LC retention time was found to be 551 s.
`CCOC(=O)C1CCN(CC(O)COc2cc(C)cc(C)c2C)CC1` (stereo not given) gave an RP-LC retention time of 597 s.
Consider `CCc1cc(N2CCN(C(=O)c3ccc4c(c3)OCO4)CC2)nc2nncn12`, for which the RP-LC retention time turned out to be 575 s.
Next, `O=C(NC[C@H](O)CO)c1ccncc1Nc1ccc(I)cc1F`: 671 s; `CC1CCN(c2nc3c(c(=O)n(C)c(=O)n3C)n2Cc2ccc(Br)cc2)CC1`: 1250 s.
For `CCN1C(=O)NC(c2ccccc2C(F)(F)F)C2=C1CN(CCC(=O)NCCOC)C2=O` (stereo not given) the value was 928 s; for `CCCc1nc(-c2c(C)cc(C)nc2NC(=O)c2cc(C)cc(C)c2)no1`, 784 s.
For `CCOC(=O)CNC(=O)NCc1cccn1Cc1cccc(F)c1` the value was 810 s; for `CCOc1ccc(C2C(=O)N(C3CCCCCC3)CC(=O)N2Cc2ccco2)cc1OC` (stereo not given), 963 s.
`CCOc1cccc(CNc2nccc(-n3nc(C)cc3C)n2)c1` returned an RP-LC retention time of 858 s.
For `Cc1cc(C)c2c(N3CCCCC3)nc(C(=O)NCCN3CCOCC3)nc2n1` the value was 550 s; for `COc1ccc(NC(=O)C2=C(C)C(=O)OC23CCCCCC3)cc1OC`, 887 s; for `CCC(CC)C(=O)N1CCC2(CC1)CN(C)CC2c1nc(-c2ccncc2)n[nH]1` (stereo not given), 565 s.
Regarding `Cc1cc(OCC(=O)NCc2ccco2)nc(N2CCC(C)CC2)n1`, the RP-LC retention time is 650 s.
In turn, `COc1ccc(N2C(=O)CCC(C(=O)NCCCN3CCCCCC3)C2c2ccc(F)cc2)cc1` (stereo not given) displayed an RP-LC retention time of 610 s.
Consider `O=C(CN1CCOCC1)N1CC(c2nc(CCOCC3CC3)no2)C1`, for which the RP-LC retention time worked out at 577 s.
For `CN(C)CC1(O)CCC2(CCN(C(=O)c3cccn3C)CC2)CC1` the value was 577 s; for `O=NN(CCCl)C(=O)NCc1ccc[n+]([O-])c1`, 587 s; for `Cc1noc(C2(NC(=O)c3ccccn3)CCCCC2)n1`, 766 s.
Next, `CCOC(=O)CCNC(=O)N1[C@H]2CC[C@@H]1c1cnc(-c3ccccc3)nc1C2`: 794 s; `O=C(Nc1ccccc1)C1CCN(C(=O)c2ncn3c2COC(c2ccccc2)C3)CC1` (stereo not given): 752 s; `Cc1cccc(OCC(=O)Nc2nc(-c3ccccc3)cs2)c1`: 1090 s.
In turn, `CCCC(=O)N1C[C@H]2C[C@H](C1)[C@H]1CCCC(=O)N1C2` had an RP-LC retention time of 601 s.
`CCOc1ccc2nc(C(=O)N3CCN(c4ccc(Cl)cc4)CC3)cn2n1` returned an RP-LC retention time of 1000 s.
For the compound `CCN1CCCC1CNS(=O)(=O)c1cc(-c2nc(C)c(C(=O)N3CCCC3)s2)cs1` (stereo not given), the RP-LC retention time was 604 s.
On to `CCS(=O)(=O)N1CC(=O)N(c2cc(C)cc(C)c2)C(C)(C(=O)NCc2ccc(F)cc2)C1` (stereo not given), for which the RP-LC retention time is 892 s.
With `COc1ccc(CNc2ccc(S(=O)(=O)C(C)(C)C)nn2)cc1OC`, the RP-LC retention time was found to be 711 s.
Regarding `CCOc1cccc(CNC(=O)c2cn3cc(Cl)ccc3n2)c1`, the RP-LC retention time worked out at 886 s.
As for `Cc1cccc(Nc2c(-c3ccccc3)nc3nc(C)cc(C)n23)c1`, the RP-LC retention time is 741 s.
In turn, `COc1ccccc1CNS(=O)(=O)c1ccc(-c2c(C)noc2C)cc1` registered an RP-LC retention time of 922 s.
As to `CC1CN(C(=O)Cn2cc(SCC(=O)NC3CCCC3)c3ccccc32)CC(C)O1` (stereo not given), the RP-LC retention time was 826 s.
Turning to `COCCNC(=O)C1CCCN1S(=O)(=O)c1cc2c(cc1Cl)NC(=O)CO2` (stereo not given), the RP-LC retention time is 627 s.
`CC1CCCN(CCCNC(=O)c2nc(CCS(=O)(=O)c3ccc(F)cc3)no2)C1` (stereo not given) displayed an RP-LC retention time of 620 s.
For `Cc1cc(C)cc(NC(=O)CN2C(=O)CSc3ccc(C(=O)N(C)C)cc32)c1` the value was 906 s.
The compound `O=C(Cc1nnc2cc(-c3nc(C4CC4)no3)ccn12)N1CCc2ccccc2C1` returned an RP-LC retention time of 780 s.
Next, `Cc1ccc(Cn2c(=O)c3nn(C)cc3n3c(=O)n(Cc4ccc(F)cc4)nc23)cc1`: 947 s.
Compound `COc1ccccc1C(=O)Nc1nnc(SCc2nnc(-c3ccccc3)o2)s1` yielded an RP-LC retention time of 914 s.
On to `O=C(Cn1cccc1-c1nnc(-c2ccccc2)o1)N1CCN(c2cccc(Cl)c2)CC1`, for which the RP-LC retention time was 1120 s.
For `CC1(C)CC(=O)c2cn(-c3ccccc3)c(=O)c(C(=O)N3CCCC3)c2C1` the value was 699 s; for `O=C(NC1CC1)[C@@H]1C[C@H](Oc2ccccc2)CN1C(=O)C1(c2ccccc2)CC1`, 855 s.
The compound `Cc1cccc(C(=O)N2CCCC2c2cc(C(C)C)on2)c1` (stereo not given) yielded an RP-LC retention time of 948 s.
In the case of `CCCc1cc(C2CCCN2C(=O)c2c(OC)cccc2OC)no1` (stereo not given), the RP-LC retention time was determined as 898 s.
As for `O=C(NCc1ccccc1Cl)C1CCN(C(=O)c2ncn3c2COC(c2ccccc2)C3)CC1` (stereo not given), the RP-LC retention time was found to be 786 s.
For `COc1ccc(Nc2c(-c3ccc(SC)cc3)nc3cnccn23)cc1OC` the value was 818 s; for `COCCN1CN=C(Nc2nc(C)c3ccccc3n2)NC1`, 589 s; for `O=C(Cn1ccn2nc(-c3ccc(Cl)cc3)cc2c1=O)N1CCCc2ccccc21`, 1080 s.
`C#Cc1cccc(Nc2ncnc3cc4c(cc23)OCCOCCOCCO4)c1` displayed an RP-LC retention time of 674 s.
Next, `O=C(CCC[C@@H]1[C@H]2CCCN3CCC[C@@H](CN1C(=O)c1ccccc1)[C@@H]23)Nc1ccc2c(c1)OCCO2`: 647 s; `CCCCn1cc(S(=O)(=O)Nc2ccc(Cl)cc2F)c2cccnc21`: 1020 s; `Cc1cccc(-c2ncccc2CNS(=O)(=O)c2cc(F)cc(F)c2)c1`: 776 s.
In turn, `Cc1cc(NC(=O)C2CCN(S(=O)(=O)c3cn(C(C)C)cn3)CC2)ccc1Br` had an RP-LC retention time of 876 s.
`CCOC(=O)c1csc(NC(=O)c2ccc3ncsc3c2)n1` showed an RP-LC retention time of 726 s.
Next, `Clc1ccccc1-c1ccnc2nc(-c3ccccc3)nn12`: 928 s; `O=C(NC1CCN(Cc2ccccc2)CC1)C1CCCN(C(=O)c2cccc(Cl)c2)C1` (stereo not given): 650 s; `CCC1CCCCN1C(=O)c1cnc2nc(C)ccc2c1Nc1ccc(OC)c(Cl)c1` (stereo not given): 668 s.
Next, `Cc1ccc(S(=O)(=O)Nc2ccc(-c3cn4ccc(C)nc4n3)cc2)cc1`: 646 s.
`c1ccc2oc(SCc3cn4ccsc4n3)nc2c1` had an RP-LC retention time of 653 s.
`COc1ccc(NC(=O)c2c(F)cccc2F)c([N+](=O)[O-])c1`: the RP-LC retention time was 831 s.
Next, `Cc1ccc(-c2noc(C3CCCN3C(=O)C3CCN(S(=O)(=O)c4ccc(C)cc4)CC3)n2)cc1` (stereo not given): 1080 s; `CCC(C)n1nnc2cc(S(=O)(=O)N(C)CC(=O)NCCc3c[nH]c4ccccc34)ccc21` (stereo not given): 885 s; `Cc1nc2cc(-c3noc(COc4ccc(F)cc4)n3)ccc2o1`: 994 s.
For `CCCN1CCC[C@H](c2cccc(O)c2)C1` the value was 588 s; for `COCc1c(C(=O)O)nnn1-c1ccc(OC)c(Cl)c1`, 706 s; for `CC(C)c1cc(C(=O)Nc2ccc(Cl)cc2)no1`, 1080 s.
`COc1ccc(CCNC(=O)Cn2cnc(C)cc2=O)cc1OC`: the RP-LC retention time was 574 s.
In turn, `CC(C)(C)c1ccc(-c2noc(-c3nn(-c4cccc(F)c4)ccc3=O)n2)cc1` showed an RP-LC retention time of 1140 s.
As to `Cc1cc(C)c(S(=O)(=O)N2CCC(C(=O)NCc3csc(-c4cccs4)n3)CC2)cc1C`, the RP-LC retention time was determined as 1050 s.
`CC(=O)Nc1ccc(OC(=O)c2ccccc2OC(C)=O)cc1` yielded an RP-LC retention time of 853 s.
In the case of `O=C(Nc1cnn(-c2ncc(N3CCSCC3)cn2)c1)NC1CCCCC1`, the RP-LC retention time worked out at 759 s.
`Cc1noc([C@@H]2CN(Cc3c(F)cccc3Cl)C[C@H]2CO)n1` showed an RP-LC retention time of 605 s.
For `O=C(NCC1CCCO1)c1ccc2nc(CCc3ccccc3)oc2c1` (stereo not given) the value was 840 s.
On to `CC1CCN(S(=O)(=O)c2ccc(-c3nnc(C(=O)NC4CC4)o3)cc2)CC1`, for which the RP-LC retention time came to 876 s.
In turn, `Cn1c(=O)oc2cc(-c3noc(-c4ccc(C#N)cc4)n3)ccc21` registered an RP-LC retention time of 988 s.
As for `CCCC(=O)Nc1cnc(-c2ccccc2)nc1`, the RP-LC retention time turned out to be 815 s.
`COc1ccc(NC(=O)C2CCN(S(=O)(=O)c3ccc4c(c3)sc(=O)n4C)CC2)cc1Cl` returned an RP-LC retention time of 880 s.
Take `Cc1ccc2c(c1)N(Cc1ccccc1)N=C(C(=O)N1CCOCC1)S2(=O)=O`: the RP-LC retention time worked out at 832 s.
